According to ChEMBL document CHEMBL5385886, “Design, synthesis and evaluation of nitric oxide releasing derivatives of 2,4-diaminopyrimidine as novel FAK inhibitors for intervention of metastatic triple-negative breast cancer” (Eur J Med Chem, 2023):
The source made the active and inactive calls. No cut-off for these calls is given here.

Tests used:
MDA-MB-231 [1] = experiment: Induction of apoptosis in human MDA-MB-231 cells assessed as late apoptotic cells at 4 uM incubated for 72 hrs by Annexin V-FITC/PI staining based flow cytometry analysis (reference value: 0.11%); format: functional
MDA-MB-453 = experiment: Antiproliferative activity against human MDA-MB-453 cells assessed as inhibition of cell proliferation incubated for 72 hrs by MTT assay; format: functional, cell-based; conditions: MDA-MB-453, 72 h
MDA-MB-231 [2] = experiment: Induction of apoptosis in human MDA-MB-231 cells assessed as early apoptotic cells at 4 uM incubated for 72 hrs by Annexin V-FITC/PI staining based flow cytometry analysis (reference value: 2.16%); format: functional
MDA-MB-231 [3] = experiment: Induction of apoptosis in human MDA-MB-231 cells assessed as live cells at 4 uM incubated for 72 hrs by Annexin V-FITC/PI staining based flow cytometry analysis (reference value: 97.51%); format: functional
MDA-MB-231 [4] = experiment: Antiproliferative activity against human MDA-MB-231 cells assessed as inhibition of cell proliferation incubated for 72 hrs by MTT assay; format: functional, cell-based; conditions: MDA-MB-231, 72 h
MDA-MB-231 [5] = experiment: Induction of apoptosis in human MDA-MB-231 cells assessed as dead cells at 4 uM incubated for 72 hrs by Annexin V-FITC/PI staining based flow cytometry analysis (reference value: 0.23%); format: functional
[6] = Cytotoxicity against human MCF-10A cells assessed as inhibition of cell proliferation incubated for 72 hrs by MTT assay; format: toxicity, cell-based
MDA-MB-157 = experiment: Antiproliferative activity against human MDA-MB-157 cells assessed as inhibition of cell proliferation incubated for 72 hrs by MTT assay; format: functional, cell-based; conditions: MDA-MB-157, 72 h
MDA-MB-231 [7] = experiment: Antiproliferative activity against human MDA-MB-231 cells assessed as inhibition of cell proliferation incubated for 72 hrs in presence of 4-((8-hydroxyoctyl)oxy)-3-(phenylsulfonyl)-1,2,5-oxadiazole 2-oxide by MTT assay; format: functional, cell-based; conditions: MDA-MB-231, 72 h
MDA-MB-231 [8] = experiment: Antiproliferative activity against human MDA-MB-231 cells assessed as inhibition of cell proliferation at 5 to 20 uM incubated for 72 hrs by MTT assay; format: functional, cell-based; conditions: dose 5-20 µM
MDA-MB-231 [9] = experiment: Induction of NO production in human MDA-MB-231 cells at 4 uM incubated for 72 hrs by DAF-FM-DA dye based flow cytometry analysis; format: functional, cell-based
MDA-MB-231 [10] = experiment: Antiproliferative activity against human MDA-MB-231 cells assessed as inhibition of cell proliferation at 5 uM incubated for 72 hrs by MTT assay relative to control; format: functional
Focal adhesion kinase 1 = Focal adhesion kinase 1 (Homo sapiens, UniProt Q05397); experiment: Inhibition of FAK (unknown origin)
Sequence of Focal adhesion kinase 1 (Q05397 whole entry): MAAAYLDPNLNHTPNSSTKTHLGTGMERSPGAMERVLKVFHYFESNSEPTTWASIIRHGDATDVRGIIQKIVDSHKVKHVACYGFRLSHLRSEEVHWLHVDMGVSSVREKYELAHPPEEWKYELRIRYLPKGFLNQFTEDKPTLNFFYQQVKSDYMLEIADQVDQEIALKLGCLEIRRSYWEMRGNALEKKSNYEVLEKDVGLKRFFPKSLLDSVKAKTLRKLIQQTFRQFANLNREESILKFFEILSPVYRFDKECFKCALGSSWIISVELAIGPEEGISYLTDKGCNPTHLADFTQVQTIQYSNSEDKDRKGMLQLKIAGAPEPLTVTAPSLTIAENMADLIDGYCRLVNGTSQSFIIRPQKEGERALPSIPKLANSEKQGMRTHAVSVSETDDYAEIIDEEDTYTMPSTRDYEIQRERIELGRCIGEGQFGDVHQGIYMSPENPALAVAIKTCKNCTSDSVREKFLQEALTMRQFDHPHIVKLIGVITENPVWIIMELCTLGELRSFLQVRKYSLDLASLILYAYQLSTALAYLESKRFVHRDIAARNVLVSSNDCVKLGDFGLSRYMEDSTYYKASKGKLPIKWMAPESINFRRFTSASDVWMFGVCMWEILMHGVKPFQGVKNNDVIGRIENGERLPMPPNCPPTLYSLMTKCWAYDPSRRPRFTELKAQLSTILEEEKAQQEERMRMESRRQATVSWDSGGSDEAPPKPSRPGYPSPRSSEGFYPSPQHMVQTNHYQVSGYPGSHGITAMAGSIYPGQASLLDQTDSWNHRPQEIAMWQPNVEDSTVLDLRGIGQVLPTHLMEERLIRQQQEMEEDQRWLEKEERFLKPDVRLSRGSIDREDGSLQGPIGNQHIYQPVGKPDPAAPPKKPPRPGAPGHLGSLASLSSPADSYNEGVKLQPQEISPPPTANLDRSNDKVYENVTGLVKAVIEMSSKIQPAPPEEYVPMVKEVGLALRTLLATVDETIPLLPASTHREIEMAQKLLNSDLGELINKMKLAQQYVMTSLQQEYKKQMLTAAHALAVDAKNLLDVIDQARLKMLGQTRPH

For `CNC(=O)c1ccccc1Nc1nc(Nc2ccc(N3CCOCC3)cc2OC)ncc1Cl`, the Activity (MDA-MB-231 [1]) was 1.31%, the IC50 (MDA-MB-453) was 1220 nM and the Activity (MDA-MB-231 [2]) was 40.78%. It also gave an Activity (MDA-MB-231 [3]) of 57.79%, an IC50 (MDA-MB-231 [4]) of 1170 nM and an Activity (MDA-MB-231 [5]) of 0.11%. The IC50 at 72 h [6] was 6470 nM and the IC50 (MDA-MB-157) was 912 nM.

`CNC(=O)c1ccccc1Nc1nc(Nc2ccc(CC(=O)O)cc2)ncc1Cl` showed an IC50 (MDA-MB-231 [4]) of 1950 nM and an IC50 (MDA-MB-231 [7]) of 1220 nM.

For `CC1(C)N(O)C(c2ccc(C(=O)O)cc2)=[N+]([O-])C1(C)C`, the Activity (MDA-MB-231 [8]) was “inactive”.

For `CNC(=O)c1ccccc1Nc1nc(Nc2ccc(CC(=O)OCC(C)COc3no[n+]([O-])c3S(=O)(=O)c3ccccc3)cc2)ncc1Cl` (configuration not stated), the Activity (MDA-MB-231 [9]) was “Active”, the IC50 (MDA-MB-453) was 255 nM and the IC50 (MDA-MB-231 [4]) was 225 nM. It also gave an inhibition at 5 µM (MDA-MB-231 [10]) greater than 92%, an IC50 (Focal adhesion kinase 1) of 66 nM and an IC50 (MDA-MB-157) of 275 nM.
